Test results from article PMC5681653, “Structural basis of arrestin-3 activation and signaling” (Nature Communications, 2017).

What was measured:
[1] = target: T1, arrestin-3 (1-393) (Bos taurus, UniProt P32120); test: microscale thermophoresis, two-site fit, pre-IR fluorescence change; assay type: binding
T1 construct: gene ARRB2; residues 1-393 (stop codon at L394, deletes 394-408), pTrcHisB, E. coli BL21 Gold, purified by heparin, Q/SP and size exclusion columns; 43 kD monomer, 134 kD trimer with IP6
T1 sequence (P32120 1-393 isoform P32120-2): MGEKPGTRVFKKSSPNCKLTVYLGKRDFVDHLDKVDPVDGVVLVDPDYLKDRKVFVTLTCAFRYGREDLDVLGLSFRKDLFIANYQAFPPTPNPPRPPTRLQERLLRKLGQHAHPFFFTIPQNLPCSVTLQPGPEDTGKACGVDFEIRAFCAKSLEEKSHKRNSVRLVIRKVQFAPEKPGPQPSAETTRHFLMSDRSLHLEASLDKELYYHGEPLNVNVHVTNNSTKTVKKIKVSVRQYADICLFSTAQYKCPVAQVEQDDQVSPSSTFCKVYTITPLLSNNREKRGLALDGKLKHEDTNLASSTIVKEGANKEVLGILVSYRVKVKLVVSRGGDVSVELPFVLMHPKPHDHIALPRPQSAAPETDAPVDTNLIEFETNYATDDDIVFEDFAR

[2] = target: His tagged JNK3α2 (UniProt P53779); test: pull-down; His tagged JNK3α2 (10 µg) on Ni-NTA resin, arrestin-3 (10 µg) added with and without 100 µM IP6; wash 20 mM MOPS pH 7.4, 150 mM NaCl, 25 mM imidazole; eluted with 250 mM imidazole; Coomassie and Western, densitometry
Sequence of His tagged JNK3α2 (P53779 whole entry): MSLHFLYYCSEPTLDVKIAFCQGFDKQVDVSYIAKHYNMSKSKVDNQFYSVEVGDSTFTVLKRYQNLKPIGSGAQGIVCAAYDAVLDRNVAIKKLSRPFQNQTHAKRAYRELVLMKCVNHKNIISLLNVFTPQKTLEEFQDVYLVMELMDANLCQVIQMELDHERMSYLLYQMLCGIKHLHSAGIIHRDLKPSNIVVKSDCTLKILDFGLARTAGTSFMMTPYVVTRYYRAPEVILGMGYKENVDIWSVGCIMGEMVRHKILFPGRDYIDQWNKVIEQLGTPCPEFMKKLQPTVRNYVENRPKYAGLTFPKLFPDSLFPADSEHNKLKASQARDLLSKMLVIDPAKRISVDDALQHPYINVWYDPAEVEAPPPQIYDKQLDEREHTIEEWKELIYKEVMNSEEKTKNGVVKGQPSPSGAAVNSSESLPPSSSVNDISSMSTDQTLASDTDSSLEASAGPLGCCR

| Compound | Kd [1] [nM] | fold change of bound arrestin-3 with 100 µM IP6 against without IP6 [2] [fold] |
| --- | --- | --- |
| O=P(O)(O)O[C@H]1[C@H](OP(=O)(O)O)[C@@H](OP(=O)(O)O)[C@H](OP(=O)(O)O)[C@@H](OP(=O)(O)O)[C@H]1OP(=O)(O)O [IP6] | 57 |  |
| bovine arrestin-3 (1-393) (domain or fragment) |  | 2 |
